Consider 18 molecules from patent publication US20180057447A1, “METHYL MENTHOL DERIVATIVE AND COOLING AGENT COMPOSITION CONTAINING SAME” (TAKASAGO INTERNATIONAL CORPORATION, priority 2015, published 2018).

Entries after “also recorded” stand apart in the source; their conditions may differ. Some results are limits rather than exact numbers.

Data set [1] in a line: Evaluation of cool feeling intensity (EC50, with reference to NPL 6). In kind it is cell-based. As to conditions: index of the cool feeling intensity; read-out: EC50 (concentration at which a cool feeling is felt). As for the experimental part:
The measurement of the cool feeling intensity was performed with reference to NPL 6. A concentration EC50 at which a cool feeling is felt is shown below as the index of the cool feeling intensity.

A short description of data set [2]: Sensory evaluation of aqueous solutions against comparative compounds. It counts as in vivo. The following applies: for course / persistence of cool feeling intensity / start of cool feeling / taste and accompanying sensations (umami, salty, bitterness, numbness, fiery feeling): vs Comparative Compound 3; for cool feeling characteristic: rac-14a-38 vs Comparative Compound 1 (Evercool 180). As for the experimental part: Sensory Evaluation was performed by comparison with Comparative Compound 1 (Evercool 180), which has a strong cool feeling among conventionally known compounds, and has a similar structure. Each of Exemplary Compound rac-14a-38 and Comparative Compound 1 was prepared as a 2 ppm aqueous solution, and the evaluation was performed.
Sensory Evaluation was performed by comparison with Comparative Compound 2, which is conventionally known, and has a similar structure. Each of Exemplary Compound rac-14a-23 and Comparative Compound 2 was prepared as a 30 ppm aqueous solution, and the evaluation was performed.
Sensory Evaluation was performed by comparison with Comparative Compound 3, which is conventionally known, and has a similar structure. Each of Exemplary Compound rac-14a-34 and Comparative Compound 3 was prepared as a 30 ppm aqueous solution, and the evaluation was performed.
Sensory Evaluation was performed by comparison with Comparative Compound 3, which is conventionally known, and has a similar structure. Each of Exemplary Compound rac-14a-40 and Comparative Compound 3 was prepared as a 30 ppm aqueous solution, and the evaluation was performed.
Sensory Evaluation was performed by comparison with Comparative Compound 3 which is conventionally known. Each of Exemplary Compound rac-14a-46 and Comparative Compound 3 was prepared as a 30 ppm aqueous solution, and the evaluation was performed.
Sensory Evaluation was performed by comparison with Comparative Compound 3 which is conventionally known. Each of Exemplary Compound rac-14a-41 and Comparative Compound 3 was prepared as a 30 ppm aqueous solution, and the evaluation was performed.
Sensory Evaluation was performed by comparison with Comparative Compound 3 which is conventionally known. Each of Exemplary Compound rac-14a-47 and Comparative Compound 3 was prepared as a 30 ppm aqueous solution, and the evaluation was performed.

Where [3] appears, read: 30 ppm aqueous solution, vs Comparative Compound 2.

In general, melting point refers to the temperature, or range, at which the solid turns liquid.

As to `CC(C)[C@@H]1CCC(C)(C)C[C@H]1OC(=O)[C@H](C)O` (racemic) [rac-17a-2, (S)-(trans-2-isopropyl-5,5-dimethylcyclohexyl)2-hydroxypropanoate], the EC50 in data set [1] was found to be 64.7 µM.

Turning to `COC(=O)c1cccc(NC(=O)C2CC(C)(C)CCC2C(C)C)c1` (racemic) [rac-14a-44, methyl 3-(2-isopropyl-5,5-dimethylcyclohexanecarboxamide) benzoate], the EC50 in data set [1] is 5.24 µM.

Molecule `COc1ccc(NC(=O)C2CC(C)(C)CCC2C(C)C)cc1` (racemic) [rac-14a-34, 2-isopropyl-N-(4-methoxyphenyl)-5,5-dimethylcyclohexanecarboxamide] displayed a melting point of 115 to 118 °C. Further, the EC50 in data set [1] came out at 0.055 µM. For the same molecule, in data set [2] (30 ppm aqueous solution), the “course / persistence of cool feeling intensity” value (shortened to “course / persistence”) is “increased over time”; the “start of cool feeling” value is on record as “later than Comparative Compound 3”; the “taste and accompanying sensations (umami, salty, bitterness, numbness, fiery feeling)” value (shortened to “taste and accompanying sensations”) was “comparable to that of Comparative Compound 3; also recorded: the secretion of saliva continued”.

Turning to `CC(C)[C@H]1CCC(C)(C)C[C@@H]1OC(=O)[C@H](C)O` [(1S,2R)-17a-2, (S)-((1S,2R)-2-isopropyl-5,5-dimethylcyclohexyl)2-hydroxypropanoate], the EC50 in data set [1] was 24.5 µM.

`CC(C)C1CCC(C)(C)CC1C(=O)NCCc1ccccn1` (racemic) [rac-14a-16, 2-isopropyl-5,5-dimethyl-N-(2-(pyridin-2-yl)ethyl)cyclohexanecarboxamide] yielded a melting point of 104 to 107 °C. The EC50 in data set [1] was found to be 0.13 µM.

`CC(C)C1CCC(C)(C)CC1C(=O)Nc1ccc(CC#N)cc1` (racemic) [rac-14a-38, N-(4-(cyanomethyl)phenyl)-2-isopropyl-5,5-dimethylcyclohexanecarboxamide] displayed a melting point of 121 to 122 °C. In addition, the EC50 in data set [1] came out at 0.24 µM. Also, in data set [2] (2 ppm aqueous solution), the “lapse until cool feeling exhibited after put in the mouth” value is listed as 1 minute to several minutes, the “persistence of cool feeling” value was ≥ 30 min and the cool feeling characteristic entry was “more natural than that of Comparative Compound 1; also recorded: only a cool feeling was felt; also recorded: sharper than that of Comparative Compound 1”.

For `CC(C)[C@@H]1CC[C@@H](C)C[C@H]1C(=O)Nc1ccc(CC#N)cc1` [Evercool 180, reference compound], in data set [2] (2 ppm aqueous solution), the cool feeling characteristic result is reported as “menthol-like characteristic”.

The molecule `CC(C)C1CCC(C)(C)CC1C(=O)Nc1ccc(CO)cc1` (racemic) [rac-14a-47, N-(4-(hydroxymethyl)phenyl)-2-isopropyl-5,5-dimethylcyclohexanecarboxamide] gave a melting point of 165 to 172 °C. In addition, in data set [1], the EC50 is 0.048 µM. Also, in data set [2] (30 ppm aqueous solution), the “course / persistence” value is “also has persistence”; the “start of cool feeling” value is “early start of a cool feeling”; the “taste and accompanying sensations” value is listed as “stronger umami was felt than that in Comparative Compound 3; also recorded: accompanied by a fiery feeling (burning feeling)”.

For the molecule `CC(C)C1CCC(C)(C)CC12OCC(CO)O2` (racemic) [(1R,2S)-19a-1, (6-isopropyl-9,9-dimethyl-1,4-dioxaspiro[4.5]decan-2-yl)methanol], the EC50 in data set [1] was determined as 32.4 µM.

`CCOC(=O)CNC(=O)C1CC(C)(C)CCC1C(C)C` (racemic) [rac-14a-23, ethyl 2-(2-isopropyl-5,5-dimethylcyclohexanecarboxamide) acetate] had a melting point of 104 to 107 °C. Besides, the EC50 in data set [1] came out at 0.49 µM. In data set [2] (setting [3]), the “cool feeling intensity peak” value is given as “comparable to that of Comparative Compound 2”, the “exhibition of a cool feeling (start)” value is “later than Comparative Compound 2”, the “persistence of cool feeling” value was “superior to that of Comparative Compound 2” and the “sharp cool feeling stimulation” value is listed as “stronger than that in Comparative Compound 2”.

`CCNC(=O)C1CC(C)(C)CCC1C(C)C` (racemic) [rac-14a-2, N-ethyl-2-isopropyl-5,5-dimethylcyclohexanecarboxamide]: the melting point lay in the range of 101 to 105 °C. Besides, the EC50 in data set [1] was found to be 2.27 µM.

Regarding `COc1ccc(NC(=O)C2CC(C)(C)CCC2C(C)C)c(C)c1` (racemic) [rac-14a-40, 2-isopropyl-N-(4-methoxy-2-methylphenyl)-5,5-dimethylcyclohexanecarboxamide], the EC50 in data set [1] came out at 0.079 µM. Moreover, in data set [2] (30 ppm aqueous solution), the “taste and accompanying sensations” value was “stronger and shaper than those of Comparative Compound 3; also recorded: Umami and a numbness feeling were exhibited simultaneously”.

Turning to `CC(C)[C@@H]1CCC(C)(C)C[C@H]1C(=O)Nc1ccc(CC#N)cc1` [14a-38i, (−)-trans-N-(4-(cyanomethyl)phenyl)-2-isopropyl-5,5-dimethylcyclohexanecarboxamide], the EC50 in data set [1] is 0.14 µM.

`COC(=O)c1ccc(NC(=O)C2CC(C)(C)CCC2C(C)C)c(C)c1` (racemic) [rac-14a-46, methyl 4-(2-isopropyl-5,5-dimethylcyclohexanecarboxamide)-3-methylbenzoate]: in data set [1], the EC50 amounted to 1.5 µM. In addition, in data set [2] (30 ppm aqueous solution), the “course / persistence” value is given as “the cool feeling intensity persisted”; the “start of cool feeling” value is recorded as “the start was late”; the “taste and accompanying sensations” value was “clear and light touch characteristic of an ester”.

Turning to `COC(=O)c1ccc(NC(=O)C2CC(C)(C)CCC2C(C)C)cc1` (racemic) [rac-14a-45, methyl 4-(2-isopropyl-5,5-dimethylcyclohexanecarboxamide) benzoate], in data set [1], the EC50 came out at 3.53 µM.

`CC(C)C1CCC(C)(C)CC1C(N)=O` (stereo not shown) [14a-50, 2-isopropyl-5,5-dimethylcyclohexanecarboxamide] came in with a melting point of 141 to 145 °C. In addition, the EC50 in data set [1] was 15.5 µM.

Regarding `CC(C)[C@@H]1CCC(C)(C)C[C@H]1OC(=O)[C@H](C)O` [(1R,2S)-17a-2, (S)-((1R,2S)-2-isopropyl-5,5-dimethylcyclohexyl)2-hydroxypropanoate], the EC50 in data set [1] was 78.5 µM.

As for `COc1ccc(NC(=O)C2CC(C)(C)CCC2C(C)C)cc1O` (racemic) [rac-14a-41, N-(3-hydroxy-4-methoxyphenyl)-2-isopropyl-5,5-dimethylcyclohexanecarboxamide], the melting point lay within 93 to 98 °C. The EC50 in data set [1] was 0.027 µM. In addition, in data set [2] (30 ppm aqueous solution), the “course / persistence” value is “also has persistence”; the “start of cool feeling” value was “slightly earlier than Comparative Compound 3”; the “taste and accompanying sensations” value was “Chemical-like bitterness was somewhat felt as a first taste; also recorded: accompanied by a clear feeling than a fiery feeling”.
